Among the data in PubChem BioAssay AID2060343 (Molecular Pharmacology Branch, DTP, NCI, 2025) are IC50 and viability, T/C values, retold here.

The test system of the assay is 138582-337-R-J1-PDC spheroids with HUVEC/MSC, viability. Briefly: Anticancer human tumor 138582-337-R-J1-PDC patient-derived Merkel cell tumor cell line growth inhibition [IpAb]. The following applies: for viability, T/C: stronger effect = lower value. Put shortly: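 Spheroids of 60% malignant cells, 25% HUVEC and 15% MSC were exposed to targeted agents combined with ipatasertib or abemaciclib. Doses started at or near clinical Cmax (10 microM when unknown) and fell in half-log steps.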

[1] abbreviates: curve of first compound, second compound 0.01 µM.
The mark [2] stands for this setting: curve of first compound, second compound 0.0316 µM.
[3] abbreviates: curve of first compound, second compound 0.1 µM.
The mark [4] stands for this setting: curve of first compound, second compound 0.316 µM.
The mark [5] stands for this setting: curve of first compound, second compound 1 µM.
[6] abbreviates: second compound 0.01 µM, first compound 0.0316 µM.
Setting [7] is: second compound 0.01 µM, first compound 0.1 µM.
The mark [8] stands for this setting: second compound 0.01 µM, first compound 0.316 µM.
The mark [9] stands for this setting: second compound 0.01 µM, first compound 1 µM.
[10] abbreviates: second compound 0.0316 µM, first compound 0.0316 µM.
Where [11] appears, read: second compound 0.0316 µM, first compound 0.1 µM.
[12] abbreviates: second compound 0.0316 µM, first compound 0.316 µM.
The mark [13] stands for this setting: second compound 0.0316 µM, first compound 1 µM.
Where [14] appears, read: second compound 0.1 µM, first compound 0.0316 µM.
The mark [15] stands for this setting: second compound 0.1 µM, first compound 0.1 µM.
The mark [16] stands for this setting: second compound 0.1 µM, first compound 0.316 µM.
[17] abbreviates: second compound 0.1 µM, first compound 1 µM.
Setting [18] is: second compound 0.1 µM, first compound 3.16 µM.
The mark [19] stands for this setting: second compound 0.1 µM, first compound 10 µM.
The mark [20] stands for this setting: second compound 0.316 µM, first compound 0.0316 µM.
Where [21] appears, read: second compound 0.316 µM, first compound 0.1 µM.
[22] abbreviates: second compound 0.316 µM, first compound 0.316 µM.
Where [23] appears, read: second compound 0.316 µM, first compound 1 µM.
Where [24] appears, read: second compound 0.316 µM, first compound 3.16 µM.
[25] abbreviates: second compound 0.316 µM, first compound 10 µM.
[26] abbreviates: second compound 1 µM, first compound 0.0316 µM.
[27] abbreviates: second compound 1 µM, first compound 0.1 µM.
The mark [28] stands for this setting: second compound 1 µM, first compound 0.316 µM.
Where [29] appears, read: second compound 1 µM, first compound 1 µM.
The mark [30] stands for this setting: second compound 1 µM, first compound 3.16 µM.
[31] abbreviates: second compound 1 µM, first compound 10 µM.

Values joined by “and” are separate entries in the source; they are usually repeats but may differ in a detail not shown here. Equal entries are not always repeated. Bounds are passed on as bounds.

The term IC50 denotes the concentration that inhibits the measured activity by half. As a reminder, the viability, T/C is the result in the treated group divided by that in the control group, in per cent.
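Further: spheroids exposed to compounds for seven days.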
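Wherever viability, T/C is given: 100% = DMSO vehicle control viability.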

In the case of `C=CCn1c(=O)c2cnc(Nc3ccc(N4CCN(C)CC4)cc3)nc2n1-c1cccc(C(C)(C)O)n1` + CCN1CCN(Cc2ccc(Nc3ncc(F)c(-c4cc(F)c5nc(C)n(C(C)C)c5c4)n3)nc2)CC1, the half-inhibitory concentration (IC50) under setting [1] was above 10000 nM; the half-inhibitory concentration (IC50) under setting [2] is above 10000 nM; the half-maximal inhibitory concentration (IC50) under setting [3] was above 10000 nM; the half-maximal inhibitory concentration (IC50) under setting [4] is above 10000 nM; the half-inhibitory concentration (IC50) under setting [5] was above 10000 nM. Also, the viability, T/C under setting [6] was 105%; the viability, T/C under setting [7] was 95.3%; the viability, T/C under setting [8] is 100%; the viability, T/C under setting [9] was 90.4%; the viability, T/C (second compound 0.01 µM, first compound 3.16 µM) is 117%; the viability, T/C (second compound 0.01 µM, first compound 10 µM) is 141%. The viability, T/C is, setting by setting: under setting [10], 106%; under setting [11], 99.5%; under setting [12], 90.9%; under setting [13], 99.1%; (second compound 0.0316 µM, first compound 3.16 µM) 101%; (second compound 0.0316 µM, first compound 10 µM) 133%. The viability, T/C under setting [14] was 91.4%; the viability, T/C under setting [15] was 98.7%; the viability, T/C under setting [16] is 91.7%; the viability, T/C under setting [17] is 90.3%; the viability, T/C under setting [18] is 116%; the viability, T/C under setting [19] is 141%. In addition, the viability, T/C was 86.4% under setting [20]; 96.2% under setting [21]; 87.6% under setting [22]; 94.1% under setting [23]; 116% under setting [24]; 144% under setting [25]. Further, the viability, T/C by setting is: under setting [26], 102%; under setting [27], 109%; under setting [28], 101%; under setting [29], 105%; under setting [30], 114%; under setting [31], 134%.
On to `CCCS(=O)(=O)Nc1ccc(F)c(C(=O)c2c[nH]c3ncc(-c4ccc(Cl)cc4)cc23)c1F` + CC(C)NCC(C(=O)N1CCN(c2ncnc3c2C(C)CC3O)CC1)c1ccc(Cl)cc1, for which the IC50 runs as follows: under setting [3], above 10000 nM; under setting [4], above 10000 nM; under setting [5], 4180 nM; (curve of first compound, second compound 3.16 µM) below 31.6 nM; (curve of first compound, second compound 10 µM) below 31.6 nM. In addition, the viability, T/C by setting is: under setting [14], 87.4%; under setting [15], 86.3%; under setting [16], 88.9%; under setting [17], 89.7%; under setting [18], 102%; under setting [19], 68.2%. The viability, T/C is, setting by setting: under setting [20], 73.2%; under setting [21], 77.2%; under setting [22], 66%; under setting [23], 68%; under setting [24], 71.7%; under setting [25], 51.6%. For the same molecule, the viability, T/C under setting [26] was 67.3%; the viability, T/C under setting [27] is 61.2%; the viability, T/C under setting [28] was 61.3%; the viability, T/C under setting [29] is 54.5%; the viability, T/C under setting [30] was 58%; the viability, T/C under setting [31] is 36%. The viability, T/C was 47.2% (second compound 3.16 µM, first compound 0.0316 µM); 48.5% (second compound 3.16 µM, first compound 0.1 µM); 47.1% (second compound 3.16 µM, first compound 0.316 µM); 45% (second compound 3.16 µM, first compound 1 µM); 42.5% (second compound 3.16 µM, first compound 3.16 µM); 21.3% (second compound 3.16 µM, first compound 10 µM). Also, the viability, T/C by setting is: (second compound 10 µM, first compound 0.0316 µM) 41.8%; (second compound 10 µM, first compound 0.1 µM) 47.8%; (second compound 10 µM, first compound 0.316 µM) 43.7%; (second compound 10 µM, first compound 1 µM) 35.7%; (second compound 10 µM, first compound 3.16 µM) 31.1%; (second compound 10 µM, first compound 10 µM) 1.88%.
In the case of `COc1c(OCCCN2CCOCC2)ccc2c3n(c(=NC(=O)c4cnc(N)nc4)nc12)CCN3` + CCN1CCN(Cc2ccc(Nc3ncc(F)c(-c4cc(F)c5nc(C)n(C(C)C)c5c4)n3)nc2)CC1, the IC50 under setting [1] turned out to be 48.1 nM; the half-inhibitory concentration (IC50) under setting [2] was 42.1 nM; the IC50 under setting [3] amounted to 43.2 nM; the IC50 under setting [4] was determined as 42.7 nM; the half-inhibitory concentration (IC50) under setting [5] is 31.3 nM. Further, the viability, T/C runs as follows: (second compound 0.01 µM, first compound 0.00316 µM) 91.8%; (second compound 0.01 µM, first compound 0.01 µM) 80.9%; under setting [6], 58.5%; under setting [7], 33.7%; under setting [8], 15.2%; under setting [9], 1.9%. Further, the viability, T/C (second compound 0.0316 µM, first compound 0.00316 µM) is 93.2%; the viability, T/C (second compound 0.0316 µM, first compound 0.01 µM) was 73.2%; the viability, T/C under setting [10] was 56.7%; the viability, T/C under setting [11] was 35.1%; the viability, T/C under setting [12] was 14.7%; the viability, T/C under setting [13] was 1.66%. The viability, T/C (second compound 0.1 µM, first compound 0.00316 µM) is 84.1%; the viability, T/C (second compound 0.1 µM, first compound 0.01 µM) was 76.5%; the viability, T/C under setting [14] is 55.4%; the viability, T/C under setting [15] is 32.8%; the viability, T/C under setting [16] was 11.6%; the viability, T/C under setting [17] is 1.67%. Moreover, the viability, T/C reads like this: (second compound 0.316 µM, first compound 0.00316 µM) 85.9%; (second compound 0.316 µM, first compound 0.01 µM) 74.2%; under setting [20], 57.5%; under setting [21], 31.4%; under setting [22], 11.8%; under setting [23], 2.07%. Further, the viability, T/C is, setting by setting: (second compound 1 µM, first compound 0.00316 µM) 98.3%; (second compound 1 µM, first compound 0.01 µM) 72%; under setting [26], 56.6%; under setting [27], 18.8%; under setting [28], 5.6%; under setting [29], 2.69%.
With `COc1c(OCCCN2CCOCC2)ccc2c3n(c(=NC(=O)c4cnc(N)nc4)nc12)CCN3`, the viability, T/C (compound 0.00316 µM) is 94.9% and 84.9%; the viability, T/C (compound 0.01 µM) is 71.2% and 75.9%; the viability, T/C (compound 0.0316 µM) is 53.5% and 58.3%; the viability, T/C (compound 0.1 µM) was 36.1% and 37.8%; the viability, T/C (compound 0.316 µM) is 17.5% and 18%; the viability, T/C (compound 1 µM) is 2.36% and 3.37%. For the same molecule, the IC50 (curve of compound) was 39 nM and 51.2 nM.
For `Cn1cnc2c(F)c(Nc3ccc(Br)cc3Cl)c(C(=O)NOCCO)cc21`, the viability, T/C (compound 0.00949 µM) is 112% and 90.1%; the viability, T/C (compound 0.03 µM) is 96.5% and 82.8%; the viability, T/C (compound 0.0949 µM) is 98.2% and 82.7%; the viability, T/C (compound 0.3 µM) is 116% and 84%; the viability, T/C (compound 0.949 µM) is 109% and 97.7%; the viability, T/C (compound 3 µM) was 146% and 106%. Besides, the IC50 (curve of compound) was above 3000 nM.
